One assay deals with T1, PTP1B (Homo sapiens, UniProt P18031).
T1 construct: pGEX4T-1-PTP1B1–321; GST (N); made in house; host or cells: E. coli BL21 (DE3)
T1 sequence (P18031 1-321): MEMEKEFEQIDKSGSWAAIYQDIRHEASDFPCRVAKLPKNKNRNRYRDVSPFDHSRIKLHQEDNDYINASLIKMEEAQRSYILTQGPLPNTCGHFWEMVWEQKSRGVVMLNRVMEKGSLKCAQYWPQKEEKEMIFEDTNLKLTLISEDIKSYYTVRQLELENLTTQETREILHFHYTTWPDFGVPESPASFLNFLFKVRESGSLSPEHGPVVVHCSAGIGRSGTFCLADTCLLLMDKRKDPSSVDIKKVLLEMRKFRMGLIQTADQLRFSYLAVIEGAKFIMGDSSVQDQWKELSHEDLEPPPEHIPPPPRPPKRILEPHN
As to the kind of experiment: PTP enzyme inhibition assay (pNPP substrate). It is filed as biochemical. How it is done: (§1) The enzymatic activities of the recombinant PTPs are measured at 25°C using pNPP as substrate. The initial velocities of enzymatic reactions are determined by continuously measuring the absorbance at 405 nm every 15 s using a microplate spectrophotometer (Bio-Rad). […] To determine the inhibition type, each concentration of Rut (0, 50 and 75 µM) is incubated with PTP1B (0.3 µM) in reaction buffer (50 mM HEPES, pH7.0, 1 mM EDTA, and 100 mM NaCl) for 10 min and the reactions are initiated by different concentrations of pNPP (0.5–10 mM). The inhibition type is determined using double-reciprocal plots. In determination of the selectivity of Rut against PTPs, the result is referred as no inhibition when 100 µM Rut inhibits no enzyme activity. The same reaction systems are designed for all PTPs including PTP1B.

The target of the next assay is T2, TC-PTP (Homo sapiens, UniProt P17706).
T2 construct: pGEX4T-1-TC-PTP1–288; GST (N); made in house; host or cells: E. coli BL21 (DE3)
Put plainly: PTP enzyme inhibition assay (pNPP substrate). In kind it is biochemical. To be noted: PTPs 0.3 µM, pNPP 5 mM, 25°C; NI: No inhibition at 100 µM. How it is done:
as §1

The next assay addresses T3, PTP1B (D48A) (Homo sapiens, UniProt P18031, D48A).
T3 construct: pGEX4T-1-PTP1B1–321; GST (N); made in house; host or cells: E. coli (BL21 (DE3) stated for the wild-type plasmid)
Put plainly: PTP enzyme inhibition assay, D48A mutant. In kind it is biochemical. How it is done: The plasmid pGEX4T1-PTP1B (D48A) is generated by site-directed mutagenesis with pGEX4T1-PTP1B (WT) as template. The primer pairs are sense: 5′-[…]-3′ and antisense: 5′-[…]-3′.
as §1

In the next assay the target is T4, PPARγ-LBD (Homo sapiens, UniProt P37231).
T4 construct: pET15b-PPARγ-LBD202–477; His-tag (N); made in house; host or cells: E. coli BL21 (DE3)
As to the kind of experiment: SPR (Biacore) binding assay. The conditions noted are these: 1:1 Langmuir fitting. Here is the method:
Binding affinities of Rut towards proteins are analyzed using SPR technology based Biacore 3000 instrument (GE Healthcare). In the assay, proteins are immobilized to CM5 chips using a standard amine-coupling procedure (Biacore manual). The proteins to be covalently bound to the chips are diluted in 10 mM sodium acetate buffer (pH4.5) to a final concentration of 0.10 mg/ml. Before experiments, baseline is equilibrated with a continuous flow of running buffer (10 mM HEPES, 150 mM NaCl, 3 mM EDTA, and 0.005% (v/v) surfactant P20, pH7.4) for 2 hours. Subsequently, Rut with a gradient of concentrations is injected to the channels at a flow rate of 20 µL/min for 60 seconds, followed by disassociation for 120 seconds. The 1∶1 Langmuir binding fitting model in BIAevaluation software version 3.1 (Biacore) is used to determine the equilibrium dissociation constants (K Ds) of compounds. […] Different concentrations of PPARγ-LBD or RXRα-LBD are injected to the channel at a flow rate of 20 µL/min for 60 s, followed by disassociation for 120 s.

The test system of a further assay is GLUT4 promoter. As to the kind of experiment: GLUT4 promoter luciferase assay with rxrα or pparγ siRNA. The conditions noted are these: Rut 20 µM. In kind it is cell-based. How it is done: (§2) HEK293 cells are transfected with luciferase reporter plus Renilla luciferase vector and other plasmids if needed for 5 hours, and cells are then incubated with indicated concentrations of compounds for another 24 h. Finally cells are lysed and luciferase activities are measured using Dual Luciferase Assay System kit. The results are presented as the fold activation relative to untreated cells after normalization with Renilla luciferase values. Each experiment is repeated at least twice, with each sample analyzed in triplicates.

The target in the next assay is T5, FXR: RXRα (Homo sapiens, UniProt P19793+Q96RI1).
T5 construct: expressed in transfected cells; host or cells: HEK293
Put plainly: Transient transfection luciferase assay in HEK293 cells (FXRE). In kind it is cell-based. To be noted: HEK293, 24 h. How it is done: (§3) HEK293 cells are transiently transfected by Lipo2000 respectively with RXRα, PPARγ, FXR, and LXRα plasmids plus pGL3-RXRE luciferase vector and renilla luciferase vector for 5 hours. Cells are then incubated with indicated concentrations of compounds for another 24 h and finally lysed. Luciferase activities are measured using Dual Luciferase Assay System kit. Rut dose-dependently activates (a) RXRα:RXRα and (b) PPARγ:RXRα activities. Rut has no effects on (c) FXR: RXRα and (d) LXRα:RXRα activities. Data are presented as means ± s.e.m (*P<0.05, **P<0.01) from three independent experiments.
as §2

The target in another assay is T6, LXRα:RXRα (Homo sapiens, UniProt P19793+Q13133).
T6 construct: expressed in transfected cells; host or cells: HEK293
As to the kind of experiment: Transient transfection luciferase assay in HEK293 cells (LXRE). In kind it is cell-based. The conditions noted are these: HEK293, 24 h. Here is the method: as §3, §2

Assay [1] has as its system GLUT4 in 3T3-L1 adipocytes. Put plainly: Western blot of GLUT4 protein level. The conditions noted are these: Rut 20 µM. In kind it is cell-based. How it is done:
Insulin sensitizing effects of Rut are investigated in CHO-K1 and 3T3-L1 adipocytes. After incubation with compounds in serum-free medium for indicated time, cells are stimulated with insulin (170 nM for CHO-K1 cells and 17 nM for 3T3-L1 adipocytes) for 5 min, and the stimulation is stopped by ice-cold PBS. The effect of Rut on insulin signaling is also investigated in CHO-K1 cells. In the assay, cells are stimulated with Rut (20 µM, 8 h) or insulin (170 nM, 5 min), and then lysed on ice. GLUT4 protein level is studied in the differentiated 3T3-L1 adipocytes (the 10th day after MDI stimulation). […] The proteins are resolved by SDS-polyacrylamide gel electrophoresis and electro-transferred to polyvinylidene difluoride membranes. The membrane is blocked by 5% skimmed milk and incubated with antibodies. Proteins are visualized by the ECL detecting system.

T2 sequence (P17706 1-288): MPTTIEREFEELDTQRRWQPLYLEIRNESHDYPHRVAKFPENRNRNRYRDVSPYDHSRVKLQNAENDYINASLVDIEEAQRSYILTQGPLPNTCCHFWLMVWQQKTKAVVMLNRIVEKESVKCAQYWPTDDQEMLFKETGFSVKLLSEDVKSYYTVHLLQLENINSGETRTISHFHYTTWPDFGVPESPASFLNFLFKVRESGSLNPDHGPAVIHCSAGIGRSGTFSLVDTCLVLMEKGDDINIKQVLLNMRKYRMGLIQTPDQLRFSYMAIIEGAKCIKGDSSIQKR
T6 sequence (Q13133 whole entry): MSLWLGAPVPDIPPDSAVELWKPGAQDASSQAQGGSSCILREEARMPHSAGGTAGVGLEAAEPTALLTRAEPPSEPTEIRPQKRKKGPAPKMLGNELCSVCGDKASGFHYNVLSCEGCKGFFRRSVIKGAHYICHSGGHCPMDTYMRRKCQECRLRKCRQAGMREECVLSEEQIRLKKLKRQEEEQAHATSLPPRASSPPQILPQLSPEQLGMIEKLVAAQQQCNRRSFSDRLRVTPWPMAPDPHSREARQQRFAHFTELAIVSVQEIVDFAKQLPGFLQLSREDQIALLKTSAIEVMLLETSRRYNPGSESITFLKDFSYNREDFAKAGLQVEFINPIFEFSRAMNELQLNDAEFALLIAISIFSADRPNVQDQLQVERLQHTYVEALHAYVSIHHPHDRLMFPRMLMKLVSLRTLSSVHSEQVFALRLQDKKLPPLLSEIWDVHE
T6 sequence (P19793 whole entry): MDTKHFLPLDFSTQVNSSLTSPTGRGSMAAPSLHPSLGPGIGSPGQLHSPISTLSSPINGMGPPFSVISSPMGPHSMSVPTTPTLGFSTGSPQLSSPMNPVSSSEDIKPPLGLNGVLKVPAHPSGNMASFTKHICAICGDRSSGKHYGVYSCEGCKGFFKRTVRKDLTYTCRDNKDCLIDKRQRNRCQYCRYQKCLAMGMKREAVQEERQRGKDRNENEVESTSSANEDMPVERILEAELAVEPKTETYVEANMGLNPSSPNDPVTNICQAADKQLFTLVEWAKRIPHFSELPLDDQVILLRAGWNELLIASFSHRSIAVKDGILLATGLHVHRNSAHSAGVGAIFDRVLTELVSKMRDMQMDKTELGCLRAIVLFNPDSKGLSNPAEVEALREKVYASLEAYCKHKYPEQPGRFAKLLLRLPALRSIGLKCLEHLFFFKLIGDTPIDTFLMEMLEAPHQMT
T3 sequence (P18031 1-321 D48A): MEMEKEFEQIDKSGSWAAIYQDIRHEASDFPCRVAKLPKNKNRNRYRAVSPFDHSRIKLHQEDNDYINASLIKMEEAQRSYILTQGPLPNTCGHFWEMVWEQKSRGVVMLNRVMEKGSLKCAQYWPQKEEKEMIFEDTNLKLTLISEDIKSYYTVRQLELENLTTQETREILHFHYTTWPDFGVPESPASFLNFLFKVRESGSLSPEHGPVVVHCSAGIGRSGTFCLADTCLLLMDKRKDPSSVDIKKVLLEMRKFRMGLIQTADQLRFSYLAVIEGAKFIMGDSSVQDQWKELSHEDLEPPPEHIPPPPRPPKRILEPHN
T5 sequence (Q96RI1 whole entry): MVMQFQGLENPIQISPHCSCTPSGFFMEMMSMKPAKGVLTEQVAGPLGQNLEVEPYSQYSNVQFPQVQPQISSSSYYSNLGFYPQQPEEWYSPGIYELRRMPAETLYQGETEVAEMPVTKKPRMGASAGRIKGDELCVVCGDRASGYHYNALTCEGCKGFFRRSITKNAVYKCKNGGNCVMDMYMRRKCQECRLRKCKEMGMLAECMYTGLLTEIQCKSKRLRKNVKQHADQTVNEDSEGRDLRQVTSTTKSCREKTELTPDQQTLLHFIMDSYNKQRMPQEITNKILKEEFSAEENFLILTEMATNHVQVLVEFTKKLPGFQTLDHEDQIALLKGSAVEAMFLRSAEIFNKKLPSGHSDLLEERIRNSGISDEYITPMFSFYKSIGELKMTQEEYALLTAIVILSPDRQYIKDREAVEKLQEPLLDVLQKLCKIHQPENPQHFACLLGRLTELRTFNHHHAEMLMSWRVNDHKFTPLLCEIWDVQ
T5 sequence (P19793 whole entry): as the sequence (P19793 whole entry) above
T4 sequence (P37231 230-505): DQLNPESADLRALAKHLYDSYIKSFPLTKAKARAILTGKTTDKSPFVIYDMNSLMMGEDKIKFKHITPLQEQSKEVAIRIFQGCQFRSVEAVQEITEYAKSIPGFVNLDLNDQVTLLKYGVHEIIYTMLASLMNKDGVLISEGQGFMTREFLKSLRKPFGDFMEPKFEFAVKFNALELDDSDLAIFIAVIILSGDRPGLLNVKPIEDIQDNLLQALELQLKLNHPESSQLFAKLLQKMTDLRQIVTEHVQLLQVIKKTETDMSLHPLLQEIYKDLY

As to `C=CC(C)(C)c1cc2cc3c(cc2oc1=O)O[C@H](C(C)(C)OC(C)=O)C3` [(+)-Rutamarin], the IC50 against PTP1B (PTPs 0.3 µM, pNPP 5 mM, 25°C, NI: No inhibition at 100 µM) turned out to be 6.4 µM; at TC-PTP, 26.8 µM; at PTP1B (D48A) it was 14.8 µM. Moreover, the “inhibition type (Lineweaver-Burk, double-reciprocal plots)” value on PTP1B (Rut 0, 50 and 75 µM, pNPP 0.5–10 mM) is recorded as “competitive inhibitor”. For the same molecule, on PPARγ-LBD, the “equilibrium dissociation constant KD / binding to PPARγ-LBD” value is “no binding”. For the same molecule, the “Relative glut4-pro activity” value in the assay on GLUT4 promoter (Fig. 6b, pSuperbasic control vector) came out at 1.31 X; with GLUT4 promoter (Fig. 6b, pSuperbasic-RXRα (rxrα siRNA)) it was 0.98 X; in the assay with GLUT4 promoter (Fig. 6c, pSuperbasic control vector), 1.55 X; with GLUT4 promoter (Fig. 6c, pSuperbasic-PPARγ (pparγ siRNA)), 1.39 X. For the same molecule, the “activity of FXR-response element (FXRE)” value at FXR: RXRα was “without influencing”. At LXRα:RXRα, the “activity of LXR-response element (LXRE)” value is recorded as “without influencing”. The GLUT4 protein level entry in assay [1] (8th hour) is “no obvious increment”; in assay [1] (48 hours), “potently increases”.
